One may read the viability as a read-out of living cells in per cent, often relative to untreated cells. A higher viability goes with less harm to the cells.

The nature of test [1]: Superoxide radical scavenging (hypoxanthine/xanthine oxidase system). Type of test: biochemical. The settings on record: tested at 100 μM (0.1 mM). An excerpt:
3.7. Superoxide radical scavenging activity. Superoxide anion radical (O2⋅−) is less toxic than hydroxyl radical, but still one of the most known harmful toxic ROS. In physiological conditions, superoxide dismutase catalyzes its conversion to H2O2, which is the precursor for the formation of hydroxyl radicals in the presence of iron ions.43 Superoxide anion radicals O2⋅− and H2O2 are ROS produced in vivo through a one-electron reduction process of O2. The evaluation of superoxide anion radical scavenging activity can be determined using assays involving non-enzymatic or enzymatic production of superoxide anions. In this assay, superoxide anion radicals were generated by a hypoxanthine and xanthine oxidase reaction system, and the O2⋅− scavenging activity (%) has been measured spectrophotometrically.

Test [2] has as its system primary neuronal cultures from rat cerebral cortex. The test is described as follows: Neuroprotection (MTT cell viability) in primary neuronal cultures exposed to oxygen-glucose deprivation (OGD). The following applies: 24 h recovery after 4 h OGD, R24 h = 0%, control = 100%. It counts as cell-based. Here is the method:
Primary neuronal cultures. Primary neuronal cultures from rat cerebral cortex were prepared as previously described.^54 All procedures associated with animal experiments were approved by the Ethics Committee of the Hospital Ramón y Cajal, Madrid (Spain). Cell suspensions from cerebral cortex were prepared from 16- to 17-day-old Sprague-Dawley rat embryos. Living cells in cell suspension were counted by trypan blue exclusion method. Cells were seeded on plastic multidishes precoated with 0.05 mg/mL poly-D-lysine at a density of 2.5×10^5 cells/cm^2 and were kept at 37° C. in a 6.5% CO2 atmosphere in high glucose Dulbecco's medium supplemented with 15% heat-inactivated (56° C. for 30 min) foetal calf serum. After 24 h, cultured cells were […] to induce experimental ischemia.^23 Cultured cells were washed and placed in glucose-free Dulbecco's medium (bubbled with 95% N2/5% CO2 for 30 min), and maintained in a humidified hypoxia chamber equipped with an oxygen and carbon dioxide control unit (Biospherix) at 6.5% CO2 and <0.1% O2 in N2 at 37° C. Cells were exposed to OGD for a period of 4 h (OGD 4 h). At the end of the OGD period, culture medium was replaced with oxygenated serum-free medium, and cells were placed and maintained in the normoxic incubator for 24 h to recovery (R24 h). In the neuroprotection experiments, the compounds were added at the onset of recovery period. Control cultures in Dulbecco's medium containing glucose were kept in the normoxic incubator for the same period of time as the OGD, and then medium (Dulbecco's/Ham's F12, 1:1 [vol/vol], 5 mg/mL glucose, 2 mM L-glutamine, and 1 mM sodium pyruvate, and supplemented with 100 μg/mL transferrin, 100 μM putrescine, 20 nM progesterone, 30 nM sodium selenite and 5 μg/mL insulin). Here, 6-7 day old cultured neurons were used in the experiments, and contained 90% β-III-tubulin-positive mature neurons, as described previously.^55
Exposure of cell cultures to oxygen-glucose deprivation and treatments. Primary neuronal cultures were exposed to […]. Control experiments included the same amounts of vehicle (final concentration<0.5% ethanol). Nitrone 2 was used as reference compound for neuroprotection. The experimental procedures were blindly performed, assigning a random order to each assayed nitrone. Nitrones were analyzed independently four-eight times with different batch of cultures and each experiment was run in quadruplicate.
Cell viability assay. Cell viability was evaluated by quantification of living, metabolically active cells, as determined by a colorimetric assay using the photometric reduction of 3-(4,5-dimethylthiazol-2-yl)-2,5-diphenyl tetrazolium bromide (MTT) (Roche) to a blue formazan product. The assay of living, metabolically active cells was performed by incubating with 0.2 mg/mL MTT in the culture medium for 1.5 h in an incubator at 37° C. in a 6.5% CO2 atm. After the incubation period, cells were lysed with an equal volume of 10 mM HCl and 10% SDS overnight. Values were quantified by absorbance (test 595 nm, reference 690 nm). Decreased MTT activity denotes impairment of mitochondrial function and is considered to be an index of cell damage. Primary neuronal cultures were collected at times indicated for MTT determination.
Neuroprotection of compounds was evaluated by a cell viability assay. The neuroprotective effect of the compounds 5-32 was evaluated on primary neuronal cultures from cerebral cortex subjected to oxygen-glucose deprivation (OGD) to induce experimental ischemia. Afterwards, cultured neurons were placed and kept in normoxic and normoglycemic conditions to recovery. […]

With `O=C(O)/C=C/c1ccc(O)c(O)c1` [Caffeic acid, caffeic acid, reference compound], in test [1], the “O2*− (%)” value was 15%.

With `Cc1ccc2nc(Cl)c(/C=[N+](\[O-])Cc3ccccc3)cc2c1` [Compound 4, (Z)—N-benzyl-1-(2-chloro-6-methylquinolin-3-yl)methanimine oxide, reference compound], in test [2] (Rattus norvegicus, 10 μM), the viability at 10 µM came to 55.4 ± 1.74%. The viability at 50 µM in test [2] (Rattus norvegicus, 50 μM) was 56.8 ± 2.57%.

`Cc1ccc2nc(Cl)c(C=NO)cc2c1` [Compound 6]: the “Neuroprotection (%)” value in test [2] (0.5 μM) is listed as 8.30 ± 0.62%; in test [2] (1 μM), 11.28 ± 1.32%; in test [2] (10 μM), less than 0%; in test [2] (100 μM) it was less than 0%.

`Cc1ccc2nc(Cl)c(/C=[N+](\[O-])c3ccccc3)cc2c1` [Compound 11, (Z)-1-(2-Chloro-6-methylquinolin-3-yl)-N-phenylmethanimine oxide] had a viability at 1 µM in test [2] (Rattus norvegicus, 1 μM) of 21.1 ± 0.31%. In test [2] (Rattus norvegicus, 10 μM), this compound had a viability at 10 µM of 36.5 ± 1%. The viability at 100 µM in test [2] (Rattus norvegicus, 100 μM) was less than 0%. The same compound returned a viability at 250 µM in test [2] (Rattus norvegicus) of 1 ± 0.07%.

In test [2] (Rattus norvegicus, 1 μM), `Cc1ccc2ncc(/C=[N+](\[O-])Cc3ccccc3)cc2c1` [Compound 12, (Z)—N-Benzyl-1-(6-methylquinolin-3-yl)methanimine oxide] returned a viability at 1 µM of 37 ± 0.05%. Besides, in test [2] (Rattus norvegicus, 10 μM), the viability at 10 µM was found to be 37.7 ± 0.66%. Further, the viability at 100 µM in test [2] (Rattus norvegicus, 100 μM) came to 34.4 ± 0.67%. Also, the viability at 250 µM in test [2] (Rattus norvegicus) was found to be 34.11 ± 0.15%.

As for `Cc1ccc2[nH]c(=O)c(/C=[N+](\[O-])Cc3ccccc3)cc2c1` [Compound 13, (Z)—N-Benzyl-1-(6-methyl-2-oxo-1,2-dihydroquinolin-3-yl)methanimine oxide], the viability at 10 µM in test [2] (Rattus norvegicus, 10 μM) stood at 35.9 ± 1.46%. In test [2] (Rattus norvegicus, 100 μM), this compound gave a viability at 100 µM of 42 ± 1.86%. This compound gave a viability at 250 µM in test [2] (Rattus norvegicus) of 29.8 ± 1.25%.

With `COc1nc2ccc(C)cc2cc1/C=[N+](\[O-])Cc1ccccc1` [Compound 14, (Z)—N-Benzyl-1-(2-methoxy-6-methylquinolin-3-yl)methanimine oxide], the viability at 1 µM in test [2] (Rattus norvegicus, 1 μM) is 17.6 ± 1.11%. The viability at 10 µM in test [2] (Rattus norvegicus, 10 μM) came to 23.7 ± 1.77%. Further, in test [2] (Rattus norvegicus, 100 μM), the viability at 100 µM is less than 0%.

In test [2] (Rattus norvegicus, 1 μM), `CNc1nc2ccc(C)cc2cc1/C=[N+](\[O-])Cc1ccccc1` [Compound 15, (Z)—N-Benzyl-1-(6-methyl-2-(methylamino)quinolin-3-yl)methanimine oxide] displayed a viability at 1 µM of 8.5 ± 0.18%. In addition, the viability at 5 µM in test [2] (Rattus norvegicus, 5 μM) was determined as 1.57 ± 0.03%. In test [2] (Rattus norvegicus, 10 μM), the viability at 10 µM was less than 0%.

The compound `Cc1ccc2nc(N(C)C)c(/C=[N+](\[O-])Cc3ccccc3)cc2c1` [Compound 16, (Z)—N-Benzyl-1-(2-(dimethylamino)-6-methylquinolin-3-yl)methanimine oxide] yielded a viability at 1 µM in test [2] (Rattus norvegicus, 1 μM) of 12.9 ± 0.34%. This compound also displayed a viability at 10 µM in test [2] (Rattus norvegicus, 10 μM) of 34.3 ± 0.59%. In test [2] (Rattus norvegicus, 100 μM), this compound gave a viability at 100 µM of less than 0%. The compound further yielded a viability at 250 µM in test [2] (Rattus norvegicus) of less than 0%.

Turning to `Cc1ccc2[nH]c(=O)c(/C=[N+](\[O-])C(C)(C)C)cc2c1` [Compound 17, (Z)—N-tert-Butyl-1-(6-methyl-2-oxo-1,2-dihydroquinolin-3-yl)methanimine oxide], in test [2] (Rattus norvegicus, 10 μM), the viability at 10 µM was determined as 20.2 ± 1.1%. For the same compound, the viability at 100 µM in test [2] (Rattus norvegicus, 100 μM) is 17.6 ± 1.35%. The compound further yielded a viability at 250 µM in test [2] (Rattus norvegicus) of 10.9 ± 0.88%.

Turning to `[O-]/[N+](=C\c1cc2ccccc2nc1Cl)Cc1ccccc1` [Compound 20, (Z)—N-Benzyl-1-(2-chloroquinolin-3-yl)methanimine oxide], in test [2] (Rattus norvegicus, 1 μM), the viability at 1 µM was 32.8 ± 2.72%. The viability at 10 µM in test [2] (Rattus norvegicus, 10 μM) is less than 0%. The same compound returned a viability at 100 µM in test [2] (Rattus norvegicus, 100 μM) of less than 0%.

For `COc1nc2ccccc2cc1/C=[N+](\[O-])Cc1ccccc1` [Compound 21, (Z)—N-Benzyl-1-(2-methoxyquinolin-3-yl)methanimine oxide], the viability at 1 µM in test [2] (Rattus norvegicus, 1 μM) was less than 0%. In addition, the viability at 10 µM in test [2] (Rattus norvegicus, 10 μM) stood at 24.2 ± 0.36%. In test [2] (Rattus norvegicus, 100 μM), this compound had a viability at 100 µM of less than 0%.

In turn, `[O-]/[N+](=C\c1cc2cc(O)ccc2nc1Cl)Cc1ccccc1` [Compound 25, (Z)—N-Benzyl-1-(2-chloro-6-hydroxyquinolin-3-yl)methanimine oxide] registered a viability at 1 µM in test [2] (Rattus norvegicus, 1 μM) of 25.15 ± 0.14%. Further, the viability at 10 µM in test [2] (Rattus norvegicus, 10 μM) was less than 0%. In test [2] (Rattus norvegicus, 100 μM), the viability at 100 µM is less than 0%. In test [2] (Rattus norvegicus), this compound yielded a viability at 250 µM of less than 0%.

For `[O-]/[N+](=C\c1cc2cc(Cl)ccc2nc1Cl)Cc1ccccc1` [Compound 26, (Z)—N-Benzyl-1-(2,6-dichloroquinolin-3-yl)methanimine oxide], in test [2] (Rattus norvegicus, 1 μM), the viability at 1 µM came out at 41.72 ± 0.3%. This compound also yielded a viability at 10 µM in test [2] (Rattus norvegicus, 10 μM) of 37.7 ± 0.52%. Further, the viability at 100 µM in test [2] (Rattus norvegicus, 100 μM) is less than 0%. Also, in test [2] (Rattus norvegicus), the viability at 250 µM worked out at 0.35 ± 0.02%.

In turn, `COc1ccc2cc(/C=[N+](\[O-])Cc3ccccc3)c(Cl)nc2c1` [Compound 27, (Z)—N-Benzyl-1-(2-chloro-7-methoxyquinolin-3-yl)methanimine oxide] showed a viability at 1 µM in test [2] (Rattus norvegicus, 1 μM) of 26.6 ± 0.37%. The compound further yielded a viability at 10 µM in test [2] (Rattus norvegicus, 10 μM) of 28 ± 1.15%. In test [2] (Rattus norvegicus, 100 μM), this compound displayed a viability at 100 µM of 19.4 ± 1.51%.

On to `COc1ccc(OC)c2nc(Cl)c(/C=[N+](\[O-])Cc3ccccc3)cc12` [Compound 28, (Z)—N-Benzyl-1-(2-chloro-5,8-dimethoxyquinolin-3-yl)methanimine oxide], for which the viability at 1 µM in test [2] (Rattus norvegicus, 1 μM) stood at 35.1 ± 0.84%. In addition, the viability at 10 µM in test [2] (Rattus norvegicus, 10 μM) was determined as 38.6 ± 0.55%. The viability at 100 µM in test [2] (Rattus norvegicus, 100 μM) was 44.27 ± 0.39%.

In test [2] (Rattus norvegicus, 1 μM), `CC(C)(C)/[N+]([O-])=C/c1cc2ccccc2n2nnnc12` [Compound 31, (Z)—N-tert-Butyl-1-(tetrazolo[1,5-a]quinolin-4-yl)methanimine oxide] came in with a viability at 1 µM of 7.64 ± 0.14%. This compound had a viability at 10 µM in test [2] (Rattus norvegicus, 10 μM) of 9.84 ± 0.65%. The compound further returned a viability at 100 µM in test [2] (Rattus norvegicus, 100 μM) of 5.83 ± 0.56%.
